According to paper PMC8011931, “Identification, Structure–Activity Relationship, and Biological Characterization of 2,3,4,5-Tetrahydro-1H-pyrido[4,3-b]indoles as a Novel Class of CFTR Potentiators” (Journal of Medicinal Chemistry, 2020):
Values joined by “and” are separate entries in the source; they are usually repeats but may differ in a detail not shown here. Equal entries are not always repeated. Where two headings read alike, the source gives them in different places.

Experiments:
[1] = Pharmacokinetics after i.v. and p.o. administration to rats; assay type: in vivo, Sprague–Dawley rats; details: for half-life at 4 h: read-out: half-life (min) (elimination phase)
Procedure: Based on both its biological profile, showing a good efficacy in primary and secondary assays, and preliminary in vitro ADME properties, potentiator 39 was further evaluated in in vivo studies. […]
Male Sprague–Dawley rats, 2 month old and weighing 175–200 g (Charles River, Calco, Italy), were used. Animals were group-housed in ventilated cages and had free access to food and water. They were maintained under a 12 h light/dark cycle (lights on at 8:00 am) at a controlled temperature (21 ± 1 °C) and relative humidity (55 ± 10%). All experiments were carried out in accordance with the guidelines established by the European Communities Council Directive (Directive 2010/63/EU of September 22, 2010) and approved by the National Council on Animal Care of the Italian Ministry of Health. All efforts were made to minimize animal suffering and to use the minimal number of animals required to produce reliable results.
[…] PEG400/Tween 80/saline solution was used as a vehicle at 10/10/80% in volume, respectively. Three animals per dose were treated. Blood samples at 0, 15, 30, 60, 90, 120, 240, and 360 min after administration were collected for p.o. arm. Blood samples at 0, 5, 15, 30, 60, 90, 120, and 240 min after administration were collected for i.v. arm. Plasma was separated from blood by centrifugation for 15 min at 3500 rpm at 4 °C, collected in an Eppendorf tube, and frozen (−80 °C). Control animals treated with vehicle only were also included in the experimental protocol.
Plasma samples were centrifuged at 21,100g for 15 min at 4 °C, while homogenized lung samples were vigorously whirled. An aliquot of each sample was extracted (1:3) with cold CH3CN containing 200 nM of an appropriate internal standard being a close analogue of the parent compound. A calibration curve was prepared in both blank mouse plasma and naïve lung homogenate over a 1 nM to 10 μM range. Three quality controls were prepared by spiking the parent compound in both blank mouse plasma and naïve lung homogenate to 20, 200, and 2000 nM as final concentrations. The calibrators and quality controls were extracted (1:3) with the same extraction solution as the plasma and lung samples. The plasma and lung samples, the calibrators, and quality controls were centrifuged at 3270g for 15 min at 4 °C. The supernatants were further diluted (1:1) with H2O and analyzed by LC/MS–MS on a Waters ACQUITY UPLC/MS TQD system consisting of a TQD mass spectrometer equipped with an electrospray ionization interface and a photodiode array eλ detector. Electrospray ionization was applied in the positive mode. Compound-dependent parameters such as MRM transitions and collision energy were developed for the parent compound and the internal standard. The mobile phase was H2O + 0.1% HCOOH (A) and CH3CN + 0.1% HCOOH (B) at a flow rate of 0.5 mL/min. For plasma samples, the analyses were run on an ACQUITY UPLC BEH C18 (50 × 2.1 mm ID, particle size 1.7 μm) with a VanGuard BEH C18 precolumn (5 × 2.1 mm ID, particle size 1.7 μm) at 40 °C. A linear gradient was applied starting at 30% B with an initial hold for 0.2 min and then 30–100% B in 2 min. For lung samples, the analyses were run on an ACQUITY UPLC BEH C18 (100 × 2.1 mm ID, particle size 1.7 μm) with a VanGuard BEH C18 precolumn (5 × 2.1 mm ID, particle size 1.7 μm) at 40 °C. A linear gradient was applied starting at 30% B with an initial hold for 0.2 min and then 30–100% B in 6 min. All samples (plasma and lung samples, calibrators, and quality controls) were quantified by MRM peak area response factor in order to determine the levels of the parent compound in plasma and lung. The concentrations versus time data were plotted and the profiles were fitted using PK Solutions Excel Application (Summit Research Service, USA) in order to determine the pharmacokinetic parameters.

F508del-CFTR = F508del-CFTR (Homo sapiens, UniProt P13569, DEL508-508); assay: HS-YFP assay on F508del-CFTR CFBE41o- cells, acute stimulation; assay type: cell-based; set-up: expressed in transfected cells; details: acute stimulation in the presence of forskolin, Figure 4A
Chain of F508del-CFTR (P13569 with tags, fused parts or gaps DEL508-508): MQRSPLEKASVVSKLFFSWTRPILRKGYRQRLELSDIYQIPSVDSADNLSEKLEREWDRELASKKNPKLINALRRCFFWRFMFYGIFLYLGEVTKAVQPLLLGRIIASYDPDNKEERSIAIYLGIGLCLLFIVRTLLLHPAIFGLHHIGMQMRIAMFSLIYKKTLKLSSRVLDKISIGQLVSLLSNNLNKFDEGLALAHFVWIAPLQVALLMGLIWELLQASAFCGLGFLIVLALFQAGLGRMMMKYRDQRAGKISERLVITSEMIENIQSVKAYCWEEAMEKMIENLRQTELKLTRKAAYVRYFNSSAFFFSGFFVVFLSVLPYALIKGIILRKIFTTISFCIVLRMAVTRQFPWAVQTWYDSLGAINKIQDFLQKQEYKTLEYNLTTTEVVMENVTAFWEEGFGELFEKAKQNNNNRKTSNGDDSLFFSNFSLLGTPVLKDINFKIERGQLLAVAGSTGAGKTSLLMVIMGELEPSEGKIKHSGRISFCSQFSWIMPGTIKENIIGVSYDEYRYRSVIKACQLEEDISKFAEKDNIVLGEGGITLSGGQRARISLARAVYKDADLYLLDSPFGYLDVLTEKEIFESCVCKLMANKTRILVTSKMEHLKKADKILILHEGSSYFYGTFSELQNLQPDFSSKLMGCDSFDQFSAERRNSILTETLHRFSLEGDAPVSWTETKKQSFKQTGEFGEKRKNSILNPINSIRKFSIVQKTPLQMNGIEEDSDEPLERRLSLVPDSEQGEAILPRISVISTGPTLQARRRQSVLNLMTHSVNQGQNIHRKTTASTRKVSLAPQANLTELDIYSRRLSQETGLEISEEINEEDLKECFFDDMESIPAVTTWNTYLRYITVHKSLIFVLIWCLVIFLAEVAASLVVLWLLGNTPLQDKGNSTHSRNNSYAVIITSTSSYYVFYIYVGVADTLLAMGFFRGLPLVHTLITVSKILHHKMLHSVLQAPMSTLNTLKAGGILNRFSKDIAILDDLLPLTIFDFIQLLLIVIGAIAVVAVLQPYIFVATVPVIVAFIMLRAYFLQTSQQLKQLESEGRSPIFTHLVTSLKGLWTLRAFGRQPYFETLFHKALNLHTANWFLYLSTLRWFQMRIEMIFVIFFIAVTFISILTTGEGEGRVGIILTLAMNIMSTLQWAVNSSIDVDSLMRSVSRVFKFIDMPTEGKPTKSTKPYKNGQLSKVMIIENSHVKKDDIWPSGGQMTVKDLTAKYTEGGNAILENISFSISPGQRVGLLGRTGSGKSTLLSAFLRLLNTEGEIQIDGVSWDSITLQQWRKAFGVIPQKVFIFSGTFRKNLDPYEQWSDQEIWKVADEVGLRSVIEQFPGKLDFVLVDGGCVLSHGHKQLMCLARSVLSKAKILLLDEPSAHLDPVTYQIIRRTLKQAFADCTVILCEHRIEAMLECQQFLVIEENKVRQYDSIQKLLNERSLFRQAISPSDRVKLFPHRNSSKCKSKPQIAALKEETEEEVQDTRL
Procedure: The preliminary activity of these three hits was further evaluated in secondary screening assays. Although featuring the same common scaffold, in order to possibly discriminate the most interesting hit for further structural investigations, the compounds belonging to the family of tetrahydro-γ-carbolines were tested on more relevant cell models. First, the hits were tested on an immortalized bronchial epithelial cell line (CFBE41o-) stably expressing F508del-CFTR and HS-YFP. […]
Prior assay, cells were washed with phosphate-buffered saline (PBS) containing (in mM) 137 NaCl, 2.7 KCl, 8.1 Na2HPO4, 1.5 KH2PO4, 1 CaCl2, and 0.5 MgCl2. […] Cells were then transferred to microplate readers (FluoStar Optima; BMG Labtech, Offenburg, Germany) for CFTR activity determination. The plate readers were equipped with high-quality excitation (HQ500/20X: 500 ± 10 nm) and emission (HQ535/30M: 535 ± 15 nm) filters for YFP (Chroma Technology). The assay consisted of a continuous 14 s fluorescence reading, 2 s before and 12 s after injection of 165 μL of an iodide-containing solution (PBS with Cl^– replaced by I^–; final I^– concentration 100 mM). Data were normalized to the initial background-subtracted fluorescence. […]

[2] = male, Sprague-Dawley, rat, iv, 3 mg/kg, plasma
[3] = male, Sprague-Dawley, rat, plasma, iv, 3 mg/kg
[4] = male, Sprague-Dawley, rat, plasma, po, 10 mg/kg
[5] = male, Sprague-Dawley, rat, po, 10 mg/kg, plasma

SMILES	Cmax [1, 2] [ng/mL]	Cmax at 4 h [1, 2] [µM]	AUC [1, 3]	Tmax at 4 h [1, 3] [min]	Vd at 4 h [1, 3] [L/kg]	clearance at 4 h [1, 3] [mL/min/kg]	half-life at 4 h [1, 3] [min]	bioavailability ([1]; male, Sprague-Dawley, rat, plasma, oral, p.o. 10 mg/kg versus i.v. 3 mg/kg, time interval 0–4 h) [%]	AUC [1, 4] [ng·h/mL]	half-life at 4 h [1, 4] [min]	concentration at 6 h ([1]; male, Sprague-Dawley, rat, plasma, po, 10 mg/kg, read-out: plasma level at 6 h postadministration)	Tmax ([1]; male, Sprague-Dawley, rat, plasma, po, 10 mg/kg, read-out: time of maximal plasma concentration) [h]	AUC ([1]; male, Sprague-Dawley, rat, plasma, po, 10 mg/kg, time interval 0–4 h) [µM·h]	bioavailability at 4 h ([1]; male, Sprague-Dawley, rat, plasma, po, p.o. 10 mg/kg versus i.v. 3 mg/kg, time interval 0–4 h) [%]	Cmax [1, 5] [ng/mL]	Cmax at 4 h [1, 5] [µM]	Tmax ([1]; p.o., 10 mg/kg) [h]	dose-dependent activation of mutant CFTR (F508del-CFTR)
Cc1ccc(F)c2[nH]c3c(c12)CN(C(=O)c1cc(C(F)(F)F)[nH]n1)[C@H](C)C3 [Compound 39, (R)-(6-Fluoro-3,9-dimethyl-1,3,4,5-tetrahydro-2H-pyrido[4,3-b]indol-2-yl)-(5-(trifluoromethyl)-1H-pyrazol-3-yl)methanone]	2790	7.3	2320 ng·h/mL and 6.1 µM·h	5	2.39	19	89	~30	2330	212	> 450 ng/mL and ~1.2 µM	2	6.1	30	769	2	2	
COc1ccc2[nH]c3c(c2c1)CN(C(=O)c1cc(C(F)(F)F)[nH]n1)CC3 [Compound 3, (8-Methoxy-1,3,4,5-tetrahydropyrido[4,3-b]indol-2-yl)-[5-(trifluoromethyl)-1H-pyrazol-3-yl]methanone]																		the most effective
